# Experimental data: US9096543B2, “Nuclear transport modulators and uses thereof” (Karyopharm Therapeutics Inc., priority 2012, dated 2015)
# What was measured:
# [1] = MTT Cell Proliferation Assay (CellTiter 96 AQueous One Solution, MTS); type: cell-based; conditions: human; 72 h treatment; cell line not given; read-out: Cytotoxicity [IC50]
# Text: The CellTiter 96® AQueous One Solution cell proliferation assay (Promega) was used on MM1.S, Jurkat and HCT-116 cells to study the cytotoxic and cytostatic properties of the compounds. The assay is based on the cleavage of the tetrazolium salt, MTS, in the presence of an electron-coupling reagent PES (phenazine ethosulfate). The MTS tetrazolium compound is bioreduced by cells into a colored formazan product that is soluble in tissue culture medium. This conversion is presumably accomplished by NADPH or NADH produced by dehydrogenase enzymes in metabolically active cells. Assays are performed by adding a small amount of the CellTiter 96® AQueous One solution reagent directly to culture wells, incubating for 1-4 hours and then recording the absorbance at 490 nm with a 96-well plate reader. […] The cells were seeded at 5×10^3 to 1.5×10^4 cells (depending on cell type) in each well of 96-well plate in 100 μL of fresh culture medium and adherent cells were allowed to attach for overnight. The stock solutions of the compounds were diluted in cell culture medium to obtain eight concentrations of each drug, ranging from 1 nM to 30 μM and DMSO at less than 1% v/v was used as a negative control. After 72 h of treatment 20 μl of CellTiter 96® AQueous reagent was added into each well of the 96-well assay plates and the plate was incubate at 37° C. for 1-4 hours in a humidified, 5% CO2 atmosphere. Then the absorbance of each well was recorded at 490 nm by using a 96-well plate reader. In most cases the assay was performed in triplicates and the results were presented as half maximal inhibitory concentration (IC50) described below. Optical density versus compound concentration was plotted and analyzed using non linear regression equations (Excel Fit) and the IC50 for each compound was calculated.
# [2] = Brain to plasma ratio (B:P) in mice; type: in vivo; conditions: mouse, brain and plasma, 10 mg/kg po, 2 hours post-dose
# Procedure: Brain tissue following collection was rinsed with cold saline, dried on filter paper, weighed and snap-frozen by placing on dry ice. All samples were stored frozen at approximately −80° C. until analysis. […] Plasma samples were treated with the identical method (except homogenization step) and concentration of compound in either matrix was calculated based on the generated standard curves.
# [3] = Pharmacokinetics (plasma AUC) in mice; type: in vivo; conditions: mouse, 10 mg/kg po
# Procedure: Blood was collected from mice (N=3) to contribute to the total of 10 time points (pre-dose, 5 min, 15 min, 30 min, 1 hour, 2 hours, 4 hours, 8 hours, 12 hours and 24 hours post dose). Mice were bled on a rotating basis, each mouse contributing 3 time points to the blood collection. At the designated time points, animals were anaesthetized under isoflurane, and approximately 110 μL of blood per time point was collected via retro-orbital puncture into pre-cooled K2EDTA (anti-coagulant) tubes. Blood samples were put on wet ice and centrifuged (2000 g, 5 min at 4° C.) to obtain plasma within 30 minutes of sample collection. All samples were stored frozen at approximately −80° C. until analysis. Prior to analysis, samples were mixed with internal standard (dexamethasone) in acetonitrile, vortexed, centrifuged, and supernatant was injected for analysis. Concentration of compounds in plasma was determined using LC-MS-MS instrumentation (API 4000, Triple Quadruple with electrospray ionization; Acuity Ultra Performance Liquid Chromatography column C18, with MeOH and formic acid as organic solvents). PK parameters including but not limited to Tmax, Cmax, t1/2, AUClast, AUCinf were calculated using WinNonlin Professional 6.2 software package, non-compartmental pharmacokinetic model NCA200.
# [4] = tested on: Z-138 xenograft tumors; assay: Z-138 lymphoma cell line grown as a xenograft in SCID mice; type: in vivo, CB-17 SCID mice
# Procedure: Z-138 (ATCC # CRL-3001) mantle cell lymphoma cells were obtained from ATCC. These cells were grown in IMEM medium supplemented with 10% horse serum, 1% penicillin and streptomycin, and 2 mM L-glutamine. […] Twenty-four (24) female CB-17 SCID mice (Charles River Labs strain code 236), aged 5 to 6 weeks were used. The SCID mice were inoculated in the left flank with Z-138 cells in a volume of 0.2 mL, equivalent to 4×10^7 cells per mouse. […] Mice were allocated to […] prior to the initiation of treatment based on tumor volume such that mean tumor volume in each group was within the range of 77 to 92 mm^3. […] Animals were fed with Labdiet® 5001 rodent chow and sterile water ad libitum. […] Animals with weight loss of more than 20% of their starting weight were euthanized. Mice with weight loss of more than 15% of their starting weight were not treated again until weight loss recovered to less than 5% of their starting weight. Any animals with a tumor volume of more than 1500 mm^3 were euthanized. Dosing solutions were prepared fresh on each day of dosing. […] This was prepared by dissolving the lyophilized powder in sterile water.
# [5] = tested on: collagen-induced arthritis; assay: Collagen-induced arthritis (CIA) in Lewis rats; type: in vivo
# Procedure: Forty (40) female Lewis rats (BK), aged 6 to 8 weeks with a pre-treatment body weight range of 180 to 200 g were divided randomly into four (4) groups (Groups A-D) of ten (10) rats each. The rats in Groups B to D were immunized intradermally with bovine CII in IFA at three sites near the base of the tail and over the back with 500 μl, of the emulsion on day 0 (200 μL, 200 μL, 100 μL for each site). On day 7, the rats in Groups B-D were given booster injections with the same amount of the emulsion intradermally near the former injection sites. […] Rats were weighed daily and a drug holiday was given to an animal when a weight loss of greater than 13%. CIA development was evaluated via macroscopic scoring and measurements of paw swelling. […] Foot volume was measured by plethysmometry on the same day of the arthritic measurement throughout the study period. The cubage of each hind paw and swelling rate were measured and using the following equation: Swelling Rate=(CN−C0)/C0×100%. […] The clinical scores were summed for each animal, and the total average of all animals in each group was expressed as the mean arthritic score. […] Prepared sections of hind paws were subjected to hematoxylin and eosin (H&E) staining.
Kp at 2 h [2],AUC(0-inf) [3] [ng·h/mL],"weight loss ([4]; Compound 2 15 mg/kg PO, significant vs vehicle, severe loss limited to a few animals)",SMILES,IC50 at 72 h [1] [µM],"antitumor effect ([4]; Compound 2 orally, 7.5 and 15 mg/kg MWF)","therapeutic efficacy (Clinical Scores, Joint Swelling, histological examination) ([5]; 4 mg/kg (MPK) PO QoD from onset to day 28)","histopathological analysis of hind paws (H&E) ([5]; day 28, 4 mg/kg PO QoD from onset)"
2.25,33100,,"CC(C)(C)C(=O)NNC(=O)/C=C\n1cnc(-c2cc(C(F)(F)F)cc(C(F)(F)F)c2)n1 [Compound 1, (Z)-3-(3-(3,5-bis(trifluoromethyl)phenyl)-1H-1,2,4-triazol-1-yl)-N′-pivaloylacrylohydrazide]",< 1,,,
0.16,28900,Some weight loss was observed,"O=C(/C=C\n1cnc(-c2cc(C(F)(F)F)cc(C(F)(F)F)c2)n1)NNC(=O)CN1CCOCC1 [Compound 2, (Z)-3-(3-(3,5-bis(trifluoromethyl)phenyl)-1H-1,2,4-triazol-1-yl)-N′-(2-morpholinoacetyl)acrylohydrazide]",< 1,had antitumor effect at both 7.5 mg/kg and 15 mg/kg doses in a dose dependent manner,showed the therapeutic efficacy,relatively intact cartilage was found on the joint surface and pannus formation was minimal
